Reference: the kinase profiling compilation of Christmann-Franck et al. (2016)
One block for each molecule: values may come before it.

What was measured:
Test in all cases: radiometric filter-binding kinase assay
EPHA4 (human) = EPHA4 (human) (UniProt P54764)
CLK2 (human) = CLK2 (human) (UniProt P49760)
YES1 (human) = YES1 (human) (UniProt P07947)
RPS6KA5 KD1 KD2 (human) = RPS6KA5 KD1 KD2 (human) (UniProt O75582)
MAPK11 (human) = MAPK11 (human) (UniProt Q15759)
HIPK2 (human) = HIPK2 (human) (UniProt Q9H2X6)
HIPK1 (human) = HIPK1 (human) (UniProt Q86Z02)
PAK7 (human) = PAK7 (human) (UniProt Q9P286)
MAPK1 (human) = MAPK1 (human) (UniProt P28482)
HIPK3 (human) = HIPK3 (human) (UniProt Q9H422)
PLK1 (human) = PLK1 (human) (UniProt P53350)
PAK6 (human) = PAK6 (human) (UniProt Q9NQU5)
SYK (human) = SYK (human) (UniProt P43405)
IGF1R (human) = IGF1R (human) (UniProt P08069)
EPHB4 (human) = EPHB4 (human) (UniProt P54760)
PKN2 (human) = PKN2 (human) (UniProt Q16513)
[1] = system: AKT2 (human), P31751 [S474D]
MAP3K9 (human) = MAP3K9 (human) (UniProt P80192)
INSR (human) = INSR (human) (UniProt P06213)
MAPK13 (human) = MAPK13 (human) (UniProt O15264)
SRC (human) = SRC (human) (UniProt P12931)
ROCK2 (rat) = settings: accession and sequence are those of the human protein
PRKAA1 or PRKAA2 (rat) = settings: accession and sequence are those of the human protein
CAMKK2 (human) = CAMKK2 (human) (UniProt Q96RR4)
PRKCZ (human) = PRKCZ (human) (UniProt Q05513)
BRSK2 (human) = BRSK2 (human) (UniProt Q8IWQ3)
MAP3K1 (human) = MAP3K1 (human) (UniProt Q13233)
LCK (mouse) = settings: accession and sequence are those of the human protein
MAP3K7 TAB1 (human) = MAP3K7 TAB1 (human) (UniProt Q15750+O43318)
GSK3B (human) = GSK3B (human) (UniProt P49841)
EPHB3 (human) = EPHB3 (human) (UniProt P54753)
DAPK1 (human) = DAPK1 (human) (UniProt P53355)
CSK (human) = CSK (human) (UniProt P41240)
MARK4 (human) = MARK4 (human) (UniProt Q96L34)
MAP3K5 (human) = MAP3K5 (human) (UniProt Q99683)
EPHB1 (human) = EPHB1 (human) (UniProt P54762)

Chain of MAP3K1 (human) (Q13233 whole entry, looked up): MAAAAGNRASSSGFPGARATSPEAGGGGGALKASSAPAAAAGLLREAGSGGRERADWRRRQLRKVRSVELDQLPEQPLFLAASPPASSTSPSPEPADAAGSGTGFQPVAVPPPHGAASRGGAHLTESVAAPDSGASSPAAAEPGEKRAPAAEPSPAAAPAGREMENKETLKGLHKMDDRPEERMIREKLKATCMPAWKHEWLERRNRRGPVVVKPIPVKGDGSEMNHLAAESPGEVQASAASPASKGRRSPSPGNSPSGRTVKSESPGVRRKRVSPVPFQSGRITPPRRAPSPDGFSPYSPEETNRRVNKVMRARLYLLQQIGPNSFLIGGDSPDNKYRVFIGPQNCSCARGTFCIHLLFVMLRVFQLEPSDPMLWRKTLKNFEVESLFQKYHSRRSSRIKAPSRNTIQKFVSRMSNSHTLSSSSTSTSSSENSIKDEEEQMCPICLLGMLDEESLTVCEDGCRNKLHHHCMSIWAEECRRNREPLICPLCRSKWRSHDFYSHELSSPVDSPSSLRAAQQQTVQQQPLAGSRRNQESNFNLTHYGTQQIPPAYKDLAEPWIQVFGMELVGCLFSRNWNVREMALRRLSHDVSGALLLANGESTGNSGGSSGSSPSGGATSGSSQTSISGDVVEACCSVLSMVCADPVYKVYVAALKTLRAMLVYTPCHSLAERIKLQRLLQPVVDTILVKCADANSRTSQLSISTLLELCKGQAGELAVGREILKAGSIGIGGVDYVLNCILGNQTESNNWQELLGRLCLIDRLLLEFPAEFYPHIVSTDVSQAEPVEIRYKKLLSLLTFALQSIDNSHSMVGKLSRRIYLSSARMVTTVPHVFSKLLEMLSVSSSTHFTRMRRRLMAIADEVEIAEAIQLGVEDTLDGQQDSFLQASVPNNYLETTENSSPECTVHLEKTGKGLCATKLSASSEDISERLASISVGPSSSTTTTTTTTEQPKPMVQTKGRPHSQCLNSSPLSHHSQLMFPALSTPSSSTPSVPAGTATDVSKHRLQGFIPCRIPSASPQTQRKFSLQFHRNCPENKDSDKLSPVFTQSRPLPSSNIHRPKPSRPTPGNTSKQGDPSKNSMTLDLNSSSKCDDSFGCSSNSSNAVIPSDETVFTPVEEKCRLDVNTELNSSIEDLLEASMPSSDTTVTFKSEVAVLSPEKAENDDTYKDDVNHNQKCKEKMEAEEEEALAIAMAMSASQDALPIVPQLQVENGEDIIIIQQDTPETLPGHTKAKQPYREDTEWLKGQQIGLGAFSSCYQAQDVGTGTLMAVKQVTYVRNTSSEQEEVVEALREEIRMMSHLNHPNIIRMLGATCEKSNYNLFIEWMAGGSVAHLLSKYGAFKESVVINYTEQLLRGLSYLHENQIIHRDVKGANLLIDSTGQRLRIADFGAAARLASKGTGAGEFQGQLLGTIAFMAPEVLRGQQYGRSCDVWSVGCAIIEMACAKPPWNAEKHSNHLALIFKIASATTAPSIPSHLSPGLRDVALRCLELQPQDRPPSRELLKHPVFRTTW
Chain of MAPK11 (human) (Q15759 whole entry, looked up): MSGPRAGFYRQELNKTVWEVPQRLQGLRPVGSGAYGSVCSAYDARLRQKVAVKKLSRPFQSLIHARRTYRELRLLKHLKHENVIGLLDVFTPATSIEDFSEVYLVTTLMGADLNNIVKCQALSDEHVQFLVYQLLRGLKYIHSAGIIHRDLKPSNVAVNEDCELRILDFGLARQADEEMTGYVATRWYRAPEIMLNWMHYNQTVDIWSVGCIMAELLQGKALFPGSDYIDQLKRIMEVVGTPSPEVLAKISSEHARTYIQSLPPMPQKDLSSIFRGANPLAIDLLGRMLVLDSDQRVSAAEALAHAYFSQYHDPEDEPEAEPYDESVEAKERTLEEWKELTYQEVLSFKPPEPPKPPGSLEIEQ
Chain of CLK2 (human) (P49760 whole entry, looked up): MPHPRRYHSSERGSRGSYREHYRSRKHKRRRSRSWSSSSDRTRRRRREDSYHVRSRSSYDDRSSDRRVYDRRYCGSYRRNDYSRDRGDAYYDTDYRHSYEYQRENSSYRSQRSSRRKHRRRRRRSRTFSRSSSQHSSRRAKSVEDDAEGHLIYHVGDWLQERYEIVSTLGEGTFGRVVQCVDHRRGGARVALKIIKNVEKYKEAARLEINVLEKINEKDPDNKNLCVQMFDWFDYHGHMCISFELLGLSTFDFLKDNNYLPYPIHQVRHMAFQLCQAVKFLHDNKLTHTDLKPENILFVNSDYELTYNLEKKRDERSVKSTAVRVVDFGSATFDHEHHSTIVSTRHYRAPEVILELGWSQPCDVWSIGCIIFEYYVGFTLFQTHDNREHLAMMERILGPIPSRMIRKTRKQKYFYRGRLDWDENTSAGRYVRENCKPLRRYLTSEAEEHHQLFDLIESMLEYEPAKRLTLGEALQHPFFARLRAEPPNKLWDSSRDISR
Chain of MAPK1 (human) (P28482 whole entry, looked up): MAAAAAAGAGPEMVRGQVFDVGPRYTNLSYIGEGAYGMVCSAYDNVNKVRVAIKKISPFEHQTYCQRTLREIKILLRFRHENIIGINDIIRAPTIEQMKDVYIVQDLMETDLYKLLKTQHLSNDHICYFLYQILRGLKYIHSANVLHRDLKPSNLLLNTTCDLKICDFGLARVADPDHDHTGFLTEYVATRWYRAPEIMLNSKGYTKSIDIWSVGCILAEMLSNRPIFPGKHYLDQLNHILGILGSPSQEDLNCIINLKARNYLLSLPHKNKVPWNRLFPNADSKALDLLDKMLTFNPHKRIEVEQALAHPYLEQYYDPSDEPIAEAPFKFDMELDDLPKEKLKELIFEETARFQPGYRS
Chain of AKT2 (human), P31751 [S474D] (P31751 whole entry S474D, looked up): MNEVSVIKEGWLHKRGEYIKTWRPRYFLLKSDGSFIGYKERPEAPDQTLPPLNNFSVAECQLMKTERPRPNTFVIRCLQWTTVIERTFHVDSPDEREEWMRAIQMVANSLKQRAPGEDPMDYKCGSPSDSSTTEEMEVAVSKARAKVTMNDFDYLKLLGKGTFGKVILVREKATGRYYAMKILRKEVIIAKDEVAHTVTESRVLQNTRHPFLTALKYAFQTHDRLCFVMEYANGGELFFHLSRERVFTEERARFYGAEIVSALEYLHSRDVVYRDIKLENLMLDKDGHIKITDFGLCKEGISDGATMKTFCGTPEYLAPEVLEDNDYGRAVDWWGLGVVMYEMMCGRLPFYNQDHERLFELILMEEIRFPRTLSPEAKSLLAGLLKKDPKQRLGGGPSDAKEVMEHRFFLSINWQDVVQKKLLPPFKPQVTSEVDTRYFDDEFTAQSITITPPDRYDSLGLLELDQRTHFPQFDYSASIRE
Chain of HIPK1 (human) (Q86Z02 whole entry, looked up): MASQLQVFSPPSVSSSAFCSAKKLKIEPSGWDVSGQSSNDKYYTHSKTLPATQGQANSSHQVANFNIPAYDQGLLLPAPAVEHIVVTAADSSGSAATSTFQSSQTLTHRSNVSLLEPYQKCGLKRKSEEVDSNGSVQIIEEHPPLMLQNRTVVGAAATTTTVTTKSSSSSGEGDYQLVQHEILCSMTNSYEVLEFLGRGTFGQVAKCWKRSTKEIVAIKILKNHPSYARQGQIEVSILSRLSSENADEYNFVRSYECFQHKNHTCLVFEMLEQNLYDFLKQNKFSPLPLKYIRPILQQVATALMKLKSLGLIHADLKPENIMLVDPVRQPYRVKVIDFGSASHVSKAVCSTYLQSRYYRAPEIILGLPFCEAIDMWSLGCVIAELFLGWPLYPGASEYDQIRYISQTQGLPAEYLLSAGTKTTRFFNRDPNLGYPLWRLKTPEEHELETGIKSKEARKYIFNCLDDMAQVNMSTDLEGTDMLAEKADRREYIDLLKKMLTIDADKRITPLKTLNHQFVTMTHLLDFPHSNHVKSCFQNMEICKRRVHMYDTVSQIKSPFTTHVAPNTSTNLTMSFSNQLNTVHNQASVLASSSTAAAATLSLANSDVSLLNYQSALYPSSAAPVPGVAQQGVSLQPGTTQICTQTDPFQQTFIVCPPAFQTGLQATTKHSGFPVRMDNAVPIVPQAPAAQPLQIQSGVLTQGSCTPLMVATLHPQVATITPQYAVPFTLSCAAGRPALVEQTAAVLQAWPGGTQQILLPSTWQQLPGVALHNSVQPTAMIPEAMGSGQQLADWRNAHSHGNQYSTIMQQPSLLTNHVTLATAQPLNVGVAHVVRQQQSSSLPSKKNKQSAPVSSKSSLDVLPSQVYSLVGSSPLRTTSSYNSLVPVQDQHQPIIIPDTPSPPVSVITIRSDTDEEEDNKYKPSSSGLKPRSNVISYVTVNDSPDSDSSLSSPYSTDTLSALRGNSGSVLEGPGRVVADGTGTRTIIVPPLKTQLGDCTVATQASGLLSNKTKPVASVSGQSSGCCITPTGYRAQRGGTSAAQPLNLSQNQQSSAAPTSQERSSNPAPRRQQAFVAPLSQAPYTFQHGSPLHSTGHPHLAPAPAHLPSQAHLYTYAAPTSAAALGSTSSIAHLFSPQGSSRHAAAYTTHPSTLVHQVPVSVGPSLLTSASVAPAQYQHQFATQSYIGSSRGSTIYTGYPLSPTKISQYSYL
Chain of CAMKK2 (human) (Q96RR4 whole entry, looked up): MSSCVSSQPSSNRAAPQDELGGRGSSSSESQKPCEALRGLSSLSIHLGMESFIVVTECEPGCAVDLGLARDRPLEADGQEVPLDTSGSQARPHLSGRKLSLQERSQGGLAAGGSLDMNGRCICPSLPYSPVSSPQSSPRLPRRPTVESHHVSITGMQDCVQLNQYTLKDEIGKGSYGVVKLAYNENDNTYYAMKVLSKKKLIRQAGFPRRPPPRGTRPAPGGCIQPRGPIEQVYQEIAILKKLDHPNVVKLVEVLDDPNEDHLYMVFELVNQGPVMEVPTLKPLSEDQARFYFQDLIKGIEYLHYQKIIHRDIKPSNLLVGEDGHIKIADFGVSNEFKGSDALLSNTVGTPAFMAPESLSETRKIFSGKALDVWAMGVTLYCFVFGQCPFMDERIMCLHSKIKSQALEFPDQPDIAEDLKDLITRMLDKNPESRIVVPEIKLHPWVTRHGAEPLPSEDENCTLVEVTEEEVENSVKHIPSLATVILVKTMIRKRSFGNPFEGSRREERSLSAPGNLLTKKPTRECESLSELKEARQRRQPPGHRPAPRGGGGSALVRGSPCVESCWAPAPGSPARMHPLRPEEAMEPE

- residual activity (EPHA4 (human); compound 0.1 µM): 93%
- residual activity (EPHA4 (human); compound 1.0 µM): 89%
- residual activity (EPHA4 (human); compound 10.0 µM): 71%
- residual activity (CLK2 (human); compound 0.1 µM): 50%
- residual activity (CLK2 (human); compound 1.0 µM): 10%
- residual activity (CLK2 (human); compound 10.0 µM): 2%
- residual activity (YES1 (human); compound 1.0 µM): 66%
- residual activity (YES1 (human); compound 10.0 µM): 13%
- residual activity (RPS6KA5 KD1 KD2 (human); compound 1.0 µM): 97%
- residual activity (RPS6KA5 KD1 KD2 (human); compound 10.0 µM): 70%
- residual activity (MAPK11 (human); compound 0.1 µM): 96%
- residual activity (MAPK11 (human); compound 1.0 µM): 111%
- residual activity (MAPK11 (human); compound 10.0 µM): 80%
- residual activity (HIPK2 (human); compound 0.1 µM): 64%
- residual activity (HIPK2 (human); compound 1.0 µM): 22%
- residual activity (HIPK2 (human); compound 10.0 µM): 9%
- residual activity (HIPK1 (human); compound 0.1 µM): 86%
- residual activity (HIPK1 (human); compound 1.0 µM): 37%
- residual activity (HIPK1 (human); compound 10.0 µM): 13%
- residual activity (PAK7 (human); compound 0.1 µM): 79%
- residual activity (PAK7 (human); compound 1.0 µM): 37%
- residual activity (PAK7 (human); compound 10.0 µM): 16%
- residual activity (MAPK1 (human); compound 0.1 µM): 81%
- residual activity (MAPK1 (human); compound 1.0 µM): 35%
- residual activity (MAPK1 (human); compound 10.0 µM): 6%
- residual activity (HIPK3 (human); compound 0.1 µM): 76%
- residual activity (HIPK3 (human); compound 1.0 µM): 52%
- residual activity (HIPK3 (human); compound 10.0 µM): 19%
- residual activity (PLK1 (human); compound 0.1 µM): 108%
- residual activity (PLK1 (human); compound 1.0 µM): 98%
- residual activity (PLK1 (human); compound 10.0 µM): 97%
- residual activity (PAK6 (human); compound 0.1 µM): 85%
- residual activity (PAK6 (human); compound 1.0 µM): 70%
- residual activity (PAK6 (human); compound 10.0 µM): 31%
- residual activity (SYK (human); compound 0.1 µM): 96%
- residual activity (SYK (human); compound 1.0 µM): 88%
- residual activity (SYK (human); compound 10.0 µM): 56%
- residual activity (IGF1R (human); compound 0.1 µM): 113%
- residual activity (IGF1R (human); compound 1.0 µM): 87%
- residual activity (IGF1R (human); compound 10.0 µM): 13%
- residual activity (EPHB4 (human); compound 0.1 µM): 107%
- residual activity (EPHB4 (human); compound 1.0 µM): 76%
- residual activity (EPHB4 (human); compound 10.0 µM): 19%
- residual activity (PKN2 (human); compound 0.1 µM): 100%
- residual activity (PKN2 (human); compound 1.0 µM): 76%
- residual activity (PKN2 (human); compound 10.0 µM): 29%
- residual activity ([1]; compound 0.1 µM): 94%
- residual activity ([1]; compound 1.0 µM): 88%
- residual activity ([1]; compound 10.0 µM): 98%
- residual activity (MAP3K9 (human); compound 0.1 µM): 54%
- residual activity (MAP3K9 (human); compound 1.0 µM): 18%
- residual activity (MAP3K9 (human); compound 10.0 µM): 6%
- residual activity (INSR (human); compound 0.1 µM): 103%
- residual activity (INSR (human); compound 1.0 µM): 81%
- residual activity (INSR (human); compound 10.0 µM): 18%
- residual activity (MAPK13 (human); compound 0.1 µM): 83%
- residual activity (MAPK13 (human); compound 1.0 µM): 77%
- residual activity (MAPK13 (human); compound 10.0 µM): 36%
- residual activity (SRC (human); compound 0.1 µM): 100%
- residual activity (SRC (human); compound 1.0 µM): 89%
- residual activity (SRC (human); compound 10.0 µM): 108%
- residual activity (ROCK2 (rat); compound 0.1 µM): 75%
- residual activity (ROCK2 (rat); compound 1.0 µM): 31%
- residual activity (ROCK2 (rat); compound 10.0 µM): 7%
- residual activity (PRKAA1 or PRKAA2 (rat); compound 0.1 µM): 99%
- residual activity (PRKAA1 or PRKAA2 (rat); compound 1.0 µM): 95%
- residual activity (PRKAA1 or PRKAA2 (rat); compound 10.0 µM): 68%
- residual activity (CAMKK2 (human); compound 0.1 µM): 99%
- residual activity (CAMKK2 (human); compound 1.0 µM): 61%
- residual activity (CAMKK2 (human); compound 10.0 µM): 30%
- residual activity (PRKCZ (human); compound 0.1 µM): 108%
- residual activity (PRKCZ (human); compound 1.0 µM): 93%
- residual activity (PRKCZ (human); compound 10.0 µM): 82%
- residual activity (BRSK2 (human); compound 0.1 µM): 109%
- residual activity (BRSK2 (human); compound 1.0 µM): 108%
- residual activity (BRSK2 (human); compound 10.0 µM): 130%
- residual activity (MAP3K1 (human); compound 0.1 µM): 108%
- residual activity (MAP3K1 (human); compound 1.0 µM): 73%
- residual activity (MAP3K1 (human); compound 10.0 µM): 30%
- residual activity (LCK (mouse); compound 0.1 µM): 105%
- residual activity (LCK (mouse); compound 1.0 µM): 88%
- residual activity (LCK (mouse); compound 10.0 µM): 67%
- residual activity (MAP3K7 TAB1 (human); compound 1.0 µM): 8%
- residual activity (MAP3K7 TAB1 (human); compound 10.0 µM): 2%
- residual activity (GSK3B (human); compound 0.1 µM): 68%
- residual activity (GSK3B (human); compound 1.0 µM): 16%
- residual activity (GSK3B (human); compound 10.0 µM): 4%
- residual activity (EPHB3 (human); compound 0.1 µM): 128%
- residual activity (EPHB3 (human); compound 1.0 µM): 113%
- residual activity (EPHB3 (human); compound 10.0 µM): 92%
- residual activity (DAPK1 (human); compound 0.1 µM): 76%
- residual activity (DAPK1 (human); compound 1.0 µM): 40%
- residual activity (DAPK1 (human); compound 10.0 µM): 10%
- residual activity (CSK (human); compound 0.1 µM): 90%
- residual activity (CSK (human); compound 1.0 µM): 82%
- residual activity (CSK (human); compound 10.0 µM): 58%
- residual activity (MARK4 (human); compound 0.1 µM): 88%
- residual activity (MARK4 (human); compound 1.0 µM): 82%
- residual activity (MARK4 (human); compound 10.0 µM): 46%
Structure (SMILES): NC(=O)c1cc2c(-c3cccc(-c4ccccc4)c3)cnc(N)c2s1

- residual activity (EPHA4 (human); compound 0.1 µM): 87%
- residual activity (EPHA4 (human); compound 1.0 µM): 80%
- residual activity (CLK2 (human); compound 0.1 µM): 102%
- residual activity (CLK2 (human); compound 1.0 µM): 88%
- residual activity (YES1 (human); compound 0.1 µM): 87%
- residual activity (YES1 (human); compound 1.0 µM): 39%
- residual activity (RPS6KA5 KD1 KD2 (human); compound 0.1 µM): 91%
- residual activity (RPS6KA5 KD1 KD2 (human); compound 1.0 µM): 80%
- residual activity (HIPK2 (human); compound 0.1 µM): 92%
- residual activity (HIPK2 (human); compound 1.0 µM): 99%
- residual activity (HIPK1 (human); compound 0.1 µM): 103%
- residual activity (HIPK1 (human); compound 1.0 µM): 87%
- residual activity (PAK7 (human); compound 0.1 µM): 100%
- residual activity (PAK7 (human); compound 1.0 µM): 82%
- residual activity (MAP3K5 (human); compound 0.1 µM): 100%
- residual activity (MAP3K5 (human); compound 1.0 µM): 91%
- residual activity (MAPK1 (human); compound 0.1 µM): 110%
- residual activity (MAPK1 (human); compound 1.0 µM): 100%
- residual activity (HIPK3 (human); compound 0.1 µM): 97%
- residual activity (HIPK3 (human); compound 1.0 µM): 90%
- residual activity (PLK1 (human); compound 0.1 µM): 98%
- residual activity (PLK1 (human); compound 1.0 µM): 94%
- residual activity (PAK6 (human); compound 0.1 µM): 110%
- residual activity (PAK6 (human); compound 1.0 µM): 96%
- residual activity (EPHB1 (human); compound 0.1 µM): 97%
- residual activity (EPHB1 (human); compound 1.0 µM): 95%
- residual activity (SYK (human); compound 0.1 µM): 103%
- residual activity (SYK (human); compound 1.0 µM): 88%
- residual activity (IGF1R (human); compound 1.0 µM): 87%
- residual activity (EPHB4 (human); compound 0.1 µM): 97%
- residual activity (EPHB4 (human); compound 1.0 µM): 98%
- residual activity (PKN2 (human); compound 0.1 µM): 112%
- residual activity (PKN2 (human); compound 1.0 µM): 95%
- residual activity ([1]; compound 0.1 µM): 99%
- residual activity ([1]; compound 1.0 µM): 91%
- residual activity (MAP3K9 (human); compound 0.1 µM): 98%
- residual activity (MAP3K9 (human); compound 1.0 µM): 88%
- residual activity (INSR (human); compound 0.1 µM): 102%
- residual activity (INSR (human); compound 1.0 µM): 80%
- residual activity (MAPK13 (human); compound 0.1 µM): 96%
- residual activity (MAPK13 (human); compound 1.0 µM): 80%
- residual activity (SRC (human); compound 0.1 µM): 85%
- residual activity (SRC (human); compound 1.0 µM): 50%
- residual activity (ROCK2 (rat); compound 0.1 µM): 86%
- residual activity (ROCK2 (rat); compound 1.0 µM): 80%
- residual activity (PRKAA1 or PRKAA2 (rat); compound 0.1 µM): 101%
- residual activity (PRKAA1 or PRKAA2 (rat); compound 1.0 µM): 77%
- residual activity (CAMKK2 (human); compound 1.0 µM): 63%
- residual activity (PRKCZ (human); compound 0.1 µM): 116%
- residual activity (PRKCZ (human); compound 1.0 µM): 89%
- residual activity (BRSK2 (human); compound 0.1 µM): 87%
- residual activity (BRSK2 (human); compound 1.0 µM): 77%
- residual activity (LCK (mouse); compound 0.1 µM): 96%
- residual activity (LCK (mouse); compound 1.0 µM): 92%
- residual activity (MAP3K7 TAB1 (human); compound 0.1 µM): 90%
- residual activity (MAP3K7 TAB1 (human); compound 1.0 µM): 66%
- residual activity (GSK3B (human); compound 0.1 µM): 114%
- residual activity (GSK3B (human); compound 1.0 µM): 90%
- residual activity (EPHB3 (human); compound 1.0 µM): 105%
- residual activity (DAPK1 (human); compound 0.1 µM): 102%
- residual activity (DAPK1 (human); compound 1.0 µM): 90%
- residual activity (CSK (human); compound 0.1 µM): 110%
- residual activity (CSK (human); compound 1.0 µM): 93%
- residual activity (MARK4 (human); compound 0.1 µM): 101%
- residual activity (MARK4 (human); compound 1.0 µM): 84%
Structure (SMILES): Cc1cc(NC(=O)c2cccc(NC(=O)/C=C/CN(C)C)c2)ccc1Nc1nccc(-c2cccnc2)n1
